Measurements taken from patent publication US6727232B2, “Nucleoside peptide antibiotics of AA-896” (Wyeth Holdings Corporation, priority 2001, dated 2004).
≈ marks a conversion by molar mass, not a printed value. Where two headings read alike, the source gives them in different places.

How the values were obtained:
Experiment in all cases: Broth dilution MIC
Assay type in all cases: cell-based
S. marcescens GC 4077 = details: Serratia marcescens, GC4077; S. marcescens GC 4077; Mueller-Hinton broth, 18 hours at 35° C.; read-out: Antimicrobial Activity (MIC)
Experimental: (§1) The in vitro antibacterial activity of Example 1 through Example 20 is determined against a spectrum of Gram-positive and Gram-negative bacteria by a standard broth dilution method. Serial dilution of the compounds are made in Mueller-Hinton broth and inoculated with a bacterial suspension. The lowest concentration of compound that inhibited the growth of a bacterial strain after 18 hours of incubation at 35° C. is reported as the minimal inhibitory concentration (MIC) for that strain.

S. aureus GC 2216 = details: Staphylococcus aureus, GC2216; S. aureus GC 2216; Mueller-Hinton broth, 18 hours at 35° C.; read-out: Antimicrobial Activity (MIC)
Experimental: as §1

P. aeruginosa GC 4532 = details: Pseudomonas aeruginosa, GC4532; P. aeruginosa GC 4532; Mueller-Hinton broth, 18 hours at 35° C.; read-out: Antimicrobial Activity (MIC)
Experimental: as §1

E. coli GC 3226 = details: Escherichia coli, GC3226; E. coli GC 3226; Mueller-Hinton broth, 18 hours at 35° C.; read-out: Antimicrobial Activity (MIC)
Experimental: as §1

S. aureus GC 1131 = details: Staphylococcus aureus, GC1131; S. aureus GC 1131; Mueller-Hinton broth, 18 hours at 35° C.; read-out: Antimicrobial Activity (MIC)
Experimental: as §1

E. faecalis GC 842 = details: Enterococcus faecalis, GC842; E. faecalis GC 842; Mueller-Hinton broth, 18 hours at 35° C.; read-out: Antimicrobial Activity (MIC)
Experimental: as §1

E. coli GC 2203 = details: Escherichia coli, GC2203; E. coli GC 2203; Mueller-Hinton broth, 18 hours at 35° C.; read-out: Antimicrobial Activity (MIC)
Experimental: as §1

M. morganii GC 4531 = details: Morganella morganii, GC4531; M. morganii GC 4531; Mueller-Hinton broth, 18 hours at 35° C.; read-out: Antimicrobial Activity (MIC)
Experimental: as §1

E. coli GC 4560 = details: Escherichia coli, read-out: Antimicrobial Activity (MIC)
Experimental: as §1

CNS GC 4547 = details: CNS GC 4547; Mueller-Hinton broth, 18 hours at 35° C.; read-out: Antimicrobial Activity (MIC)
Experimental: as §1

P. aeruginosa GC 2214 = details: Pseudomonas aeruginosa, GC2214; P. aeruginosa GC 2214; Mueller-Hinton broth, 18 hours at 35° C.; read-out: Antimicrobial Activity (MIC)
Experimental: as §1

CNS GC 4538 = details: CNS GC 4538; Mueller-Hinton broth, 18 hours at 35° C.; read-out: Antimicrobial Activity (MIC)
Experimental: as §1

S. aureus GC 4536 = details: Staphylococcus aureus, GC4536; S. aureus GC 4536; Mueller-Hinton broth, 18 hours at 35° C.; read-out: Antimicrobial Activity (MIC)
Experimental: as §1

P. rettgeri GC 4530 = details: Providencia rettgeri, GC4530; P. rettgeri GC 4530; Mueller-Hinton broth, 18 hours at 35° C.; read-out: Antimicrobial Activity (MIC)
Experimental: as §1

E. faecalis GC 2242 = details: Enterococcus faecalis, GC2242; E. faecalis GC 2242; Mueller-Hinton broth, 18 hours at 35° C.; read-out: Antimicrobial Activity (MIC)
Experimental: as §1

E. faecalis GC 4555 = details: Enterococcus faecalis, GC4555; E. faecalis GC 4555; Mueller-Hinton broth, 18 hours at 35° C.; read-out: Antimicrobial Activity (MIC)
Experimental: as §1

K. pneumoniae GC 4534 = details: Klebsiella pneumoniae, GC4534; K. pneumoniae GC 4534; Mueller-Hinton broth, 18 hours at 35° C.; read-out: Antimicrobial Activity (MIC)
Experimental: as §1

E. cloacae GC 3783 = details: Enterobacter cloacae, GC3783; E. cloacae GC 3783; Mueller-Hinton broth, 18 hours at 35° C.; read-out: Antimicrobial Activity (MIC)
Experimental: as §1

CNS GC 4537 = details: CNS GC 4537; Mueller-Hinton broth, 18 hours at 35° C.; read-out: Antimicrobial Activity (MIC)
Experimental: as §1

E. coli GC 4559 = details: Escherichia coli, GC4559; E. coli GC 4559; Mueller-Hinton broth, 18 hours at 35° C.; read-out: Antimicrobial Activity (MIC)
Experimental: as §1

Row | Structure (SMILES) | MIC (S. marcescens GC 4077) [µg/mL] | MIC (S. aureus GC 2216) [µg/mL] | MIC (P. aeruginosa GC 4532) [µg/mL] | MIC (E. coli GC 3226) [µg/mL] | MIC (S. aureus GC 1131) [µg/mL] | MIC (E. faecalis GC 842) [µg/mL] | MIC (E. coli GC 2203) [µg/mL] | MIC (M. morganii GC 4531) [µg/mL] | MIC (E. coli GC 4560; GC4560, 18 h) [µg/mL] | MIC (CNS GC 4547) [µg/mL] | MIC (P. aeruginosa GC 2214) [µg/mL] | MIC (CNS GC 4538) [µg/mL] | MIC (S. aureus GC 4536) [µg/mL] | MIC (P. rettgeri GC 4530) [µg/mL] | MIC (E. faecalis GC 2242) [µg/mL] | MIC (E. faecalis GC 4555) [µg/mL] | MIC (K. pneumoniae GC 4534) [µg/mL] | MIC (E. cloacae GC 3783) [µg/mL] | MIC (CNS GC 4537) [µg/mL] | MIC (E. coli GC 4559) [µg/mL] | further results
1 | COc1ccc(N2C(=O)C([C@@H](OC3O[C@H](CN)[C@H](O)[C@H]3OC)[C@H]3O[C@@H](n4ccc(=O)[nH]c4=O)[C@H](O)[C@@H]3O)N(CCCNC(=O)C(NC(=O)C(NC(=O)NC(C(=O)O)C(C)C)C3CCNC(=N)N3)C(O)C(C)C)C2=O)cc1 (stereo partly drawn) [Example 4, 14-[5-((R)-{[(3R,4S,5R)-5-(Aminomethyl)-4-hydroxy-3-methoxytetrahydro-2-furanyl]oxy}{(2S,3S,4R,5R)-5-[2,4-dioxo-3,4-dihydro-1 (2H)-pyrimidinyl]-3,4-dihydroxytetrahydro-2-furanyl}methyl)-3-(4-methoxyphenyl)-2,4-dioxo-1-imidazolidinyl]-9-(1-hydroxy-2-methylpropyl)-6-(2-iminohexahydro-4-pyrimidinyl)-2-isopropyl-4,7,10-trioxo-3,5,8,11-tetraazatetradecan-1-oic acid] | > 32 | > 32 | > 32 | > 32 | > 32 | > 32 | > 32 | > 32 | > 32 | > 32 | > 32 | > 32 | > 32 | > 32 | > 32 | > 32 | > 32 | > 32 | > 32 | > 32 | –
2 | COC1C(O[C@H](C2C(=O)N(c3ccc(F)cc3)C(=O)N2CCCNC(=O)C(NC(=O)C(NC(=O)NC(C(=O)O)C(C)C)C2CCNC(=N)N2)C(O)C(C)C)[C@H]2O[C@@H](n3ccc(=O)[nH]c3=O)C(O)C2O)O[C@H](CNC(=O)Nc2ccc(F)cc2)C1O (stereo partly drawn) [Example 12, 14-[5-((R)-{(2S,5R)-5-[2,4-Dioxo-3,4-dihydro-1 (2H)-pyrimidinyl]-3,4-dihydroxytetrahydro-2-furanyl}{[(5R)-4-hydroxy-3-methoxy-5-({[(4-fluoroanilino)carbonyl]amino}methyl)tetrahydro-2-furanyl]oxy}methyl)-3-(4-fluorophenyl)-2,4-dioxo-1-imidazolidinyl]-9-(1-hydroxy-2-methylpropyl)-6-(2-iminohexahydro-4-pyrimidinyl)-2-isopropyl-4,7,10-trioxo-3,5,8,11-tetraazatetradecan-1-oic Acid] | > 32 | > 32 | > 32 | > 32 | > 32 | > 32 | > 32 | > 32 | – | > 32 | > 32 | > 32 | > 32 | > 32 | > 32 | > 32 | > 32 | > 32 | > 32 | > 32 | MIC (E. coli GC 4560; GC4560, E. coli GC 4560, Mueller-Hinton broth, 18 hours at 35° C.): > 32 µg/mL
3 | CO[C@H]1C(O[C@H](C(C(=O)O)N(CCCNC(=O)C(NC(=O)C(NC(=O)NC(C(=O)O)C(C)C)C2CCNC(=N)N2)C(O)C(C)C)Cc2ccccc2)[C@H]2O[C@@H](n3ccc(=O)[nH]c3=O)[C@H](O)[C@@H]2O)O[C@H](CN)[C@@H]1O (stereo partly drawn) [Example 6, 16-((R)-{[(3R,4S,5R)-5-(Aminomethyl)-4-hydroxy-3-methoxytetrahydro-2-furanyl]oxy}{(2S,3S,4R,5R)-5-[2,4-dioxo-3,4-dihydro-1 (2H)-pyrimidinyl]-3,4-dihydroxytetrahydro-2-furanyl}methyl)-15-benzyl-9-(1-hydroxy-2-methylpropyl)-6-(2-iminohexahydro-4-pyrimidinyl)-2-isopropyl-4,7,10-trioxo-3,5,8,11,15-pentaazaheptadecane-1,17-dioic Acid] | > 32 | > 32 | > 32 | > 32 | > 32 | > 32 | > 32 | > 32 | 2 (≈ 1.93 µM) | > 32 | > 32 | > 32 | > 32 | > 32 | > 32 | > 32 | > 32 | > 32 | > 32 | > 32 | –
4 | CCCCCCCCCCCCN(CCCNC(=O)C(NC(=O)C(NC(=O)NC(C(=O)O)C(C)C)C1CCNC(=N)N1)C(O)C(C)C)C(C(=O)O)[C@@H](OC1O[C@H](CN)[C@H](O)[C@H]1OC)[C@H]1O[C@@H](n2ccc(=O)[nH]c2=O)[C@H](O)[C@@H]1O (stereo partly drawn) [Example 7, 16-((R)-{[(3R,4S,5R)-5-(Aminomethyl)-4-hydroxy-3-methoxytetrahydro-2-furanyl]oxy}{(2S,3S,4R,5R)-5-[2,4-dioxo-3,4-dihydro-1 (2H)-pyrimidinyl]-3,4-dihydroxytetrahydro-2-furanyl}methyl)-15-dodecyl-9-(1-hydroxy-2-methylpropyl)-6-(2-iminohexahydro-4-pyrimidinyl)-2-isopropyl-4,7,10-trioxo-3,5,8,11,15-pentaazaheptadecane-1,17-dioic Acid] | > 32 | > 32 | > 32 | > 32 | > 32 | > 32 | > 32 | > 32 | 16 (≈ 14.4 µM) | > 32 | > 32 | > 32 | > 32 | > 32 | > 32 | > 32 | > 32 | > 32 | > 32 | > 32 | –
5 | CCCCCCCCCCCCN1C(=O)C([C@@H](OC2O[C@H](CN)[C@H](O)[C@H]2OC)[C@H]2O[C@@H](n3ccc(=O)[nH]c3=O)[C@H](O)[C@@H]2O)N(CCCNC(=O)C(NC(=O)C(NC(=O)NC(C(=O)O)C(C)C)C2CCNC(=N)N2)C(O)C(C)C)C1=O (stereo partly drawn) [Example 5, 14-[5-((R)-{[(3R,4S,5R)-5-(Aminomethyl)-4-hydroxy-3-methoxytetrahydro-2-furanyl]oxy}{(2S,3S,4R,5R)-5-[2,4-dioxo-3,4-dihydro-1 (2H)-pyrimidinyl]-3,4-dihydroxytetrahydro-2-furanyl}methyl)-3-dodecyl-2,4-dioxo-1-imidazolidinyl]-9-(1-hydroxy-2-methylpropyl)-6-(2-iminohexahydro-4-pyrimidinyl)-2-isopropyl-4,7,10-trioxo-3,5,8,11-tetraazatetradecan-1-oic acid] | > 32 | > 32 | > 32 | > 32 | > 32 | > 32 | > 32 | > 32 | 4 (≈ 3.51 µM) | > 32 | > 32 | > 32 | > 32 | > 32 | > 32 | > 32 | > 32 | > 32 | > 32 | > 32 | –
